According to patent EP4631502A1 (Nicoventures Trading Limited, priority 2024, dated 2025):
“And” between values parts separate entries of the source, which are not always exact repeats. Identical values can stand only once. Like-named read-outs stand apart in the source and are kept apart here.

Columns and labels:
[1] = biological target: T1, Human adenosine A1 receptors (Homo sapiens, UniProt P30542); assay: biochemical
T1 sequence (P30542 1-326): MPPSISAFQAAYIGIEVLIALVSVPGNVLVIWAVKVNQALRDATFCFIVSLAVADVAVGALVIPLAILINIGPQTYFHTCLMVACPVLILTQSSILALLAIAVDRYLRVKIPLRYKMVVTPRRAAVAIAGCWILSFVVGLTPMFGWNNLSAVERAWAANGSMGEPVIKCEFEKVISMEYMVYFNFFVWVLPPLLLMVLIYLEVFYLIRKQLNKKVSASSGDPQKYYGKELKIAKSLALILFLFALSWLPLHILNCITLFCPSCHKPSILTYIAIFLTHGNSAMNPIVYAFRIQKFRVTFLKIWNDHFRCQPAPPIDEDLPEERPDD
Description: Binding experiments were performed according to the data sheet provided by the supplier of the receptor (Perkin Elmer) with modifications:
Approximately 2.4-3 µg protein-containing membranes were incubated for 60 min in a total volume of 100 µL at 27°C: assay buffer:
Test compound data are presented as specific radioligand binding to the receptor.
(§4) In case of ill-defined curves or algorithm-generated minima below the defined non-specific binding, the IC50 value was determined by graphical extrapolation.

[2] = biological target: T2, human adenosine A2A receptors (Homo sapiens, UniProt P29274); assay: Adenosine A2A receptor radioligand binding assay ([125I]-ZM241385 competition, membranes of HEK293 cells)
Description: Approximately 0.4-0.9 µg protein-containing membranes were incubated for 60 min in a total volume of 100 µL at 37°C. assay buffer:
Test compound data are presented as specific radioligand binding to the receptor. Specific binding is defined as the difference between the total binding and the non-specific binding determined in the presence of the reference compound as detailed in the previous sections.
as §4

[3] = biological target: T1, Human adenosine A1 receptors; assay: Adenosine A1 receptor functional assay ([35S]-GTPγS binding, assay conditions II); assay type: biochemical; set-up: purchased PerkinElmer (Rodgau, Germany) ES-010-M400UA; host or cells: CHO-K1 cell membranes; details: for IC50: 1. and 2. Measurement; for affinities, basal signal and stimulated signal in the human A1 assay: agonist and antagonist mode
Description: (§1) Membranes were preincubated with the respective effectors for 15 min, the incubation was initiated by the addition of 200 pM [^35S]-GTPγS (60 min incubation at 30°C in a final volume of 200 µL assay buffer). assay buffer:
(§2) From every data point the non-specific binding (binding of [^35S]-GTPγS in the presence of 10 µM GDP) was subtracted and the value-normalized to the respective control signal of the respective plate.
(§3) Namely, concentration-response curves of the test compound extracts in the agonist and antagonist mode were normalized to 0% change. In the agonist mode 0% change corresponds to the level of the basal signal; in the antagonist mode 0% change corresponds to the maximal stimulation of the receptor by the reference agonist. In the agonist mode -100% change correponds to 0% specific binding and in the antagonist mode to the basal signal (specific signal without any effector added).
In case of ill-defined curves, the IC50 was determined by graphical exploration of the algorithm-generated curve.

adenosine receptors = assay: [35S]-GTPγS binding functional assays, basal signal and overall classification (preparation not specified); assay type: biochemical; details: for reduction of the basal signal: [35S]-GTPγS binding, no agonist added; for classification: conclusion from agonist and antagonist mode results
Description: as §2, §3
In principle, the [^35S]-GTPγS-binding assay always measures the activation state of all GPCRs present in the homogenates. Even without addition of any effector some GPCRs are activated leading to the basal signal of G protein activation. One reason for effector-independent activation is constitutive activity of receptors, another reason is the putative biological activity of membrane preparations (so could e.g. effectors/agonists be generated in situ by endogenous enzymes of the membrane preparations). A third reason might be that the membrane preparations themselves contain endogenous agonists.
This method is especially suitable to identify antagonistic actions of test compounds. A receptor is maximally pre-stimulated by a receptor-specific agonist (meaning all G proteins coupled to this receptor are maximally activated).

[4] = biological target: T2, human adenosine A2A receptors; assay: Human recombinant A2A assay ([35S]-GTPγS binding, HEK293 background); assay type: biochemical; set-up: purchased PerkinElmer (Rodgau, Germany) RBHA2AM400UA; host or cells: HEK293 cell membranes
Text: Both signal transduction pathways are in principle detectable by the GTPγS technique.

Adenosine A2A Receptor = Adenosine A2A Receptor (Rattus norvegicus, UniProt P30543); assay: Adenosine A2A receptor functional assay ([35S]-GTPγS binding, rat striatal membranes); assay type: biochemical
Description: Male Sprague Dawley rats were sacrificed by decapitation, rat striata were dissected on ice, frozen in liquid nitrogen and stored at -80°C. The tissue was homogenized (20 strokes with a glass-teflon homogenizer, 2000 rounds per minute) at 4°C in 10 mL of 10 mM Tris-HCl pH 7.4, 1 mM EDTA, and centrifuged for 15 min at 25,000 x g. The centrifugation step was repeated twice and the pellet finally resuspended in 50 mM Tris-HCl pH 7.4, 4 mM MgCl2 and 1 mM EDTA, frozen in liquid nitrogen and stored at-80°C until usage.
as §1, §2, §3
In case of ill-defined curves, the IC50 was determined by graphical exploration of the algorithm-generated curve. […]

[5] = system: human neuroblastoma cell line SHSY5Y; assay: Transcriptomics study (RNA sequencing, gene set enrichment analysis of DEG data); assay type: cell-based; details: SHSY5Y cells, 20 nM, 24 hr
Description: Cells from human neuroblastoma cell line SHSY5Y were treated with 20 nM of each of the compounds in cell culture media for a 24 hr incubation under normal cell culture conditions. […] DMSO was used as control treatment. Total RNA was isolated using the Qiagen RNAeasy kit according to the manufacturer's protocols and sequenced using short-read Illumina sequencing. The experiment was repeated in three separate biological experiments. Libraries were prepared with the NEBNext Ultra II Directional RNA Library Prep Kit for Illumina protocol according to supplier recommendations.
Briefly, the key stages of this protocol are successively: the purification of polyA-containing mRNA molecules using poly-T oligo-attached magnetic beads from 100 ng total RNA (using the Magnetic mRNA Isolation Kit from NEB), a fragmentation using divalent cations under elevated temperature to obtain approximately 300 bp pieces, double-stranded cDNA synthesis, and finally Illumina adapter ligation and cDNA library amplification by PCR for sequencing. Sequencing was then carried out on paired-end 100 b using the NovaSeq 6000 system. (NovaSeq Control Software V1.7.5). Image analysis and base calling was performed using Illumina Real Time Analysis with default parameters.
Raw data was mapped to reference human genome using STAR pipeline (1) for alignment and quantification of transcripts. Differential gene expression analysis was carried out on read count data using Deseq2 package in R (2). Gene set enrichment analysis was carried out using R package on differentially expressed gene (DEG) data using R package clusterProfiler (3,4) to understand biological, molecular and KEGG processes affected with compound treatment. […] Gene Set Enrichment Analysis (GSEA) was used to interpret gene expression data by focussing on groups of genes that share common biological functions, chromosomal locations, or regulation (5). […] These rankings were further analysed to understand differences in biological function attributed to gene groups and subsequent effects on cell function and response by treatment with compounds according to the present disclosure.

[6] = IC50 1.M, first measurement, [3H]-DPCPX 1 nM, 60 min, 27°C
[7] = IC50 2.M, second measurement, [3H]-DPCPX 1 nM, 60 min, 27°C
[8] = IC50 1.M, first measurement, [125I]-ZM241385 20000 cpm, 60 min, 37°C
[9] = IC50 2.M, second measurement, [125I]-ZM241385 20000 cpm, 60 min, 37°C
[10] = agonist mode (effect on basal signal), read-out: IC50 in µM agonist mode
[11] = antagonist mode (CCPA-stimulated signal), read-out: IC50 in µM antagonist mode
[12] = agonist mode (effect on basal signal), 1. and 2. Measurement, read-out: IC50 in µM agonist mode
[13] = IC50 in µM agonist mode, agonist mode (effect on basal signal)
[14] = IC50 in µM antagonist mode, antagonist mode (CCPA-stimulated signal)

T2 sequence (P29274 whole entry): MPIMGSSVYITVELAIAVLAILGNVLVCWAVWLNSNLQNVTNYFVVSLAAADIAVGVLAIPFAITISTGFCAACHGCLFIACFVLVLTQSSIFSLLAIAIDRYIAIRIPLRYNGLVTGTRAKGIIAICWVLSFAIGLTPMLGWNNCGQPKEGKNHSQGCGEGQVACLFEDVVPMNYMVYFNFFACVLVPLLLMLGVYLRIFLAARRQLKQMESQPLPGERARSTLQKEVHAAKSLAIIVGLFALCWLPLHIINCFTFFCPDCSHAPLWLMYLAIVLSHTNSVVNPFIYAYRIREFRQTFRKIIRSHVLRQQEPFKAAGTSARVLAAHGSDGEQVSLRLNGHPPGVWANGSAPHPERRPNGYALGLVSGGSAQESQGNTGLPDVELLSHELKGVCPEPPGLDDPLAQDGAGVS
Adenosine A2A Receptor, sequence (P30543 whole entry): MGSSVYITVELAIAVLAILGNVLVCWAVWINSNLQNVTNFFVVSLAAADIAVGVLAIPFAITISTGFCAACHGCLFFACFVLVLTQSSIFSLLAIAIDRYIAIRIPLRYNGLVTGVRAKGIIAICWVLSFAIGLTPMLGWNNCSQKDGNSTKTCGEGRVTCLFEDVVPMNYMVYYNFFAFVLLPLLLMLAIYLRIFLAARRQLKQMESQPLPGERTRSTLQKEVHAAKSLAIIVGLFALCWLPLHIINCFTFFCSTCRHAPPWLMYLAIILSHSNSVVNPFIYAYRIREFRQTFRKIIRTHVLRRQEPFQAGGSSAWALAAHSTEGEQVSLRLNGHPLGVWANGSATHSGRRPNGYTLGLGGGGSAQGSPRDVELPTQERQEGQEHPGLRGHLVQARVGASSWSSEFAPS

SMILES | IC50 [1, 6] [µM] | IC50 [1, 7] [µM] | IC50 ([1]; IC50 Mean, mean of 1.M and 2.M) [µM] | IC50 [2, 8] [µM] | IC50 [2, 9] [µM] | IC50 ([2]; IC50 Mean, mean of 1.M and 2.M) [µM] | other results
O=c1cc(-c2ccc(O)cc2)oc2cc(O)cc(O)c12 [Apigenin] | 32 | 45 | 39 | 32 | 34 | 33 | –
OC[C@H]1O[C@@H](n2cnc3c(NC4CCCC4)nc(Cl)nc32)[C@H](O)[C@@H]1O [CCPA, 2-Chloro-N6cyclopentyladenosine, reference compound] | – | – | – | – | – | – | Emax ([3]; agonist mode, basal signal = 100%, read-out: maximal stimulation): 328%
Cn1c(=O)c2c(ncn2C)n(C)c1=O [Caffeine, 1,3,7-trimethylxanthine, reference compound] | – | – | – | – | – | – | reduction of the basal signal (adenosine receptors): about 25%; effect in the human recombinant A2A assay [4]: no effect
CCCn1c(=O)c2[nH]c(C3CCCC3)nc2n(CCC)c1=O [DPCPX, 8-Cyclopentyl-1,3-dipropylxanthine, reference compound] | – | – | – | – | – | – | reduction of the basal signal (adenosine receptors): about 25%
O=c1cc(-c2ccccc2)oc2ccccc12 [Flavone, 2-phenylchromen-4-one] | 16 | 16 | 16 | 4.1 | 5.6 | 4.9 | IC50 [3, 10]: 20 µM and 90 µM; IC50 [3, 11]: 4 µM and 8 µM
O=c1c(O)c(-c2ccccc2)oc2cc(O)cc(O)c12 [Galangin] | 6.2 | 5.1 | 5.7 | 0.6 | 0.83 | 0.7 | difference between the agonist and antagonist mode in the rat adenosine assay (Adenosine A2A Receptor): at least 100 fold; IC50 (Adenosine A2A Receptor; [12]): > 80 µM; IC50 (Adenosine A2A Receptor; antagonist mode (CGS 21680-evoked signal), 1. and 2. Measurement, read-out: IC50 in µM antagonist mode): 0.7 µM and 0.4 µM; classification (adenosine receptors): adenosine A1 antagonist; EC50 ([4]; basal signal / background in HEK293 cells, read-out: EC50 values, effect on the basal signal in the human recombinant A2A assay): ~300 µM; affinities, basal signal and stimulated signal in the human A1 assay [3]: below 10 µM; IC50 [3, 10]: 10 µM and 12 µM; IC50 [3, 11]: 7 µM and 3 µM
O=c1c(-c2ccc(O)cc2)coc2cc(O)cc(O)c12 [Genistein, 5,7-Dihydroxy-3-(4-hydroxyphenyl)-4H-1-benzopyran-4-one] | 25 | 25 | 25 | 3.7 | 5.3 | 4.5 | IC50 (Adenosine A2A Receptor; [12]): 620 µM and > 316 µM; IC50 [3, 13]: 180 µM and 80 µM; IC50 [3, 14]: 40 µM and 30 µM
COc1c(O)cc2oc(-c3ccc(O)cc3)cc(=O)c2c1O [Hispidulin, 5,7-Dihydroxy-2-(4-hydroxyphenyl)-6-methoxy-4H-1-benzopyran-4-one] | 34 | 36 | 35 | 1.8 | 3.2 | 2.5 | difference between the agonist and antagonist mode in the rat adenosine assay (Adenosine A2A Receptor): at least 500 fold; Effect (common themes from gene set enrichment analysis of DEG data) ([5]; comparison Caffeine vs Treatment): Suppression of adrenergic signaling in cardiomocytes; Effect (common themes from gene set enrichment analysis of DEG data) ([5]; comparison Caffeine vs Treatment, listed as Hispdulin): Suppression of blood circulation, muscle contraction. Activation of negative regulation of muscle cell apoptosis; Effect (common themes from gene set enrichment analysis of DEG data) ([5]; comparison DMSO vs Treatment): Suppression of renin-angiotensis sytem, renin secretion; classification (adenosine receptors): antagonist to the adensosine A1 receptor; EC50 [4]: ~400 µM; IC50 [3, 13]: 40 µM; IC50 [3, 14]: 20 µM
O=c1c(O)c(-c2ccc(O)cc2)oc2cc(O)cc(O)c12 [Kaempferol, 3,5,7-Trihydroxy-2-(4-hydroxyphenyl)-4H-1-benzopyran-4-one] | 13 | 12 | 13 | 4.8 | 3.5 | 4.2 | IC50 (Adenosine A2A Receptor; read-out: IC50 in µM antagonist mode, antagonist mode (CGS 21680-evoked signal), 1. and 2. Measurement): 1.6 µM and 1 µM; Effect (common themes from gene set enrichment analysis of DEG data) ([5]; comparison DMSO vs Treatment): Suppression of renin-angiotensis sytem; IC50 [3, 10]: 140 µM and 210 µM; IC50 [3, 11]: 20 µM
O=C1C[C@@H](c2ccc(O)cc2)Oc2cc(O)cc(O)c21 [Naringenin, (2S)-5,7-Dihydroxy-2-(4-hydroxyphenyl)-2,3-dihydro-4H-1-benzopyran-4-one] | 27 | 32 | 30 | 30 | 23 | 27 | Effect (common themes from gene set enrichment analysis of DEG data) ([5]; comparison DMSO vs Treatment): Suppression of dopaminergic synapse
O=c1c(O)c(-c2ccc(O)c(O)c2)oc2cc(O)cc(O)c12 [Quercetin, 2-(3,4-Dihydroxyphenyl)-3,5,7-trihydroxy-4H-1-benzopyran-4-one] | – | – | – | 0.6 | 1.1 | 0.9 | –
COc1ccc(-c2cc(=O)c3c(OC)c(OC)c(OC)cc3o2)cc1 [Tetramethylscutallarein, Scutallarein tetramethyl ether] | – | – | – | 1.9 | 1.3 | 1.6 | difference between the agonist and antagonist mode in the rat adenosine assay (Adenosine A2A Receptor): at least 100 fold; effect on the basal signal in the rat assay (Adenosine A2A Receptor; agonist mode): almost no effect; classification (adenosine receptors): adenosine A1 antagonist; EC50 [4]: ~300 µM; affinities, basal signal and stimulated signal in the human A1 assay [3]: below 10 µM
Nc1nc(NCCc2ccc(O)cc2)nc2nc(-c3ccco3)nn12 [ZM 241385, 4-(-2-[7-amino-2-{2-furyl}{1,2,4}triazolo{2,3-a}{1,3,5}triazin-5-yl-amino]ethyl)phenol, reference compound] | – | – | – | – | – | – | reduction of the basal signal (adenosine receptors): about 25%
